According to article PMC5766581, “NF-κB inducing kinase is a therapeutic target for systemic lupus erythematosus” (Nature Communications, 2018):

Experiments:
Test in all cases: SelectScreen kinase panel
Assay type in all cases: biochemical
Abl = biological target: T1, Abl (Homo sapiens, UniProt P00519)
T1 construct: purchased Invitrogen / ThermoFisher SelectScreen
In short: (§1)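 Invitrogen carries out the selectivity screen with its SelectScreen platform, applying either activity assays (Z′-LYTE peptide phosphorylation, Adapta ADP measurement) or a LanthaScreen ATP-pocket binding assay, per kinase. Results are averaged % inhibition.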

Aurora_A = biological target: T2, Aurora_A (Homo sapiens, UniProt O14965)
T2 construct: purchased Invitrogen / ThermoFisher SelectScreen
In short: as §1

CHK1 = biological target: T3, CHK1 (Homo sapiens, UniProt O14757)
T3 construct: purchased Invitrogen / ThermoFisher SelectScreen
In short: as §1

CK1_delta = biological target: T4, CK1_delta (Homo sapiens, UniProt P48730)
T4 construct: purchased Invitrogen / ThermoFisher SelectScreen
In short: as §1

CLK3 = biological target: T5, CLK3 (Homo sapiens, UniProt P49761)
T5 construct: purchased Invitrogen / ThermoFisher SelectScreen
In short: as §1

CSF1R = biological target: T6, CSF1R (Homo sapiens, UniProt P07333)
T6 construct: purchased Invitrogen / ThermoFisher SelectScreen
In short: as §1

CSK = biological target: T7, CSK (Homo sapiens, UniProt P41240)
T7 construct: purchased Invitrogen / ThermoFisher SelectScreen
In short: as §1

CaMKI = biological target: T8, CaMKI (Homo sapiens, UniProt Q14012)
T8 construct: purchased Invitrogen / ThermoFisher SelectScreen
In short: as §1

DCAMKL2 = biological target: T9, DCAMKL2 (Homo sapiens, UniProt Q8N568)
T9 construct: purchased Invitrogen / ThermoFisher SelectScreen
In short: as §1

EphA1 = biological target: T10, EphA1 (Homo sapiens, UniProt P21709)
T10 construct: purchased Invitrogen / ThermoFisher SelectScreen
In short: as §1

Fes = biological target: T11, Fes (Homo sapiens, UniProt P07332)
T11 construct: purchased Invitrogen / ThermoFisher SelectScreen
In short: as §1

Flt1 = biological target: T12, Flt1 (Homo sapiens, UniProt P17948)
T12 construct: purchased Invitrogen / ThermoFisher SelectScreen
In short: as §1

Flt3 = biological target: T13, Flt3 (Homo sapiens, UniProt P36888)
T13 construct: purchased Invitrogen / ThermoFisher SelectScreen
In short: as §1

Flt4 = biological target: T14, Flt4 (Homo sapiens, UniProt P35916)
T14 construct: purchased Invitrogen / ThermoFisher SelectScreen
In short: as §1

GRK6 = biological target: T15, GRK6 (Homo sapiens, UniProt P43250)
T15 construct: purchased Invitrogen / ThermoFisher SelectScreen
In short: as §1

IRR = biological target: T16, IRR (Homo sapiens, UniProt P14616)
T16 construct: purchased Invitrogen / ThermoFisher SelectScreen
In short: as §1

Kit = biological target: T17, Kit (Homo sapiens, UniProt P10721)
T17 construct: purchased Invitrogen / ThermoFisher SelectScreen
In short: as §1

MKNK1 = biological target: T18, MKNK1 (Homo sapiens, UniProt Q9BUB5)
T18 construct: purchased Invitrogen / ThermoFisher SelectScreen
In short: as §1

MLK1 = biological target: T19, MLK1 (Homo sapiens, UniProt P80192)
T19 construct: purchased Invitrogen / ThermoFisher SelectScreen
In short: as §1

MRCK_alpha = biological target: T20, MRCK_alpha (Homo sapiens, UniProt Q5VT25)
T20 construct: purchased Invitrogen / ThermoFisher SelectScreen
In short: as §1

Mink1 = biological target: T21, Mink1 (Homo sapiens, UniProt Q8N4C8)
T21 construct: purchased Invitrogen / ThermoFisher SelectScreen
In short: as §1

PAK4 = biological target: T22, PAK4 (Homo sapiens, UniProt O96013)
T22 construct: purchased Invitrogen / ThermoFisher SelectScreen
In short: as §1

PKA = biological target: T23, PKA (Homo sapiens, UniProt P17612)
T23 construct: purchased Invitrogen / ThermoFisher SelectScreen
In short: as §1

PKC_beta1 = biological target: T24, PKC_beta1 (Homo sapiens, UniProt P05771)
T24 construct: purchased Invitrogen / ThermoFisher SelectScreen
In short: as §1

PKC_theta = biological target: T25, PKC_theta (Homo sapiens, UniProt Q04759)
T25 construct: purchased Invitrogen / ThermoFisher SelectScreen
In short: as §1

PLK1 = biological target: T26, PLK1 (Homo sapiens, UniProt P53350)
T26 construct: purchased Invitrogen / ThermoFisher SelectScreen
In short: as §1

RSK1 = biological target: T27, RSK1 (Homo sapiens, UniProt Q15418)
T27 construct: purchased Invitrogen / ThermoFisher SelectScreen
In short: as §1

SGK2 = biological target: T28, SGK2 (Homo sapiens, UniProt Q9HBY8)
T28 construct: purchased Invitrogen / ThermoFisher SelectScreen
In short: as §1

TSSK1 = biological target: T29, TSSK1 (Homo sapiens, UniProt Q9BXA7)
T29 construct: purchased Invitrogen / ThermoFisher SelectScreen
In short: as §1

Tie2 = biological target: T30, Tie2 (Homo sapiens, UniProt Q02763)
T30 construct: purchased Invitrogen / ThermoFisher SelectScreen
In short: as §1

TrkB = biological target: T31, TrkB (Homo sapiens, UniProt Q16620)
T31 construct: purchased Invitrogen / ThermoFisher SelectScreen
In short: as §1

ZIPK = biological target: T32, ZIPK (Homo sapiens, UniProt O43293)
T32 construct: purchased Invitrogen / ThermoFisher SelectScreen
In short: as §1

p70S6K = biological target: T33, p70S6K (Homo sapiens, UniProt P23443)
T33 construct: purchased Invitrogen / ThermoFisher SelectScreen
In short: as §1

T9 sequence (Q8N568 whole entry): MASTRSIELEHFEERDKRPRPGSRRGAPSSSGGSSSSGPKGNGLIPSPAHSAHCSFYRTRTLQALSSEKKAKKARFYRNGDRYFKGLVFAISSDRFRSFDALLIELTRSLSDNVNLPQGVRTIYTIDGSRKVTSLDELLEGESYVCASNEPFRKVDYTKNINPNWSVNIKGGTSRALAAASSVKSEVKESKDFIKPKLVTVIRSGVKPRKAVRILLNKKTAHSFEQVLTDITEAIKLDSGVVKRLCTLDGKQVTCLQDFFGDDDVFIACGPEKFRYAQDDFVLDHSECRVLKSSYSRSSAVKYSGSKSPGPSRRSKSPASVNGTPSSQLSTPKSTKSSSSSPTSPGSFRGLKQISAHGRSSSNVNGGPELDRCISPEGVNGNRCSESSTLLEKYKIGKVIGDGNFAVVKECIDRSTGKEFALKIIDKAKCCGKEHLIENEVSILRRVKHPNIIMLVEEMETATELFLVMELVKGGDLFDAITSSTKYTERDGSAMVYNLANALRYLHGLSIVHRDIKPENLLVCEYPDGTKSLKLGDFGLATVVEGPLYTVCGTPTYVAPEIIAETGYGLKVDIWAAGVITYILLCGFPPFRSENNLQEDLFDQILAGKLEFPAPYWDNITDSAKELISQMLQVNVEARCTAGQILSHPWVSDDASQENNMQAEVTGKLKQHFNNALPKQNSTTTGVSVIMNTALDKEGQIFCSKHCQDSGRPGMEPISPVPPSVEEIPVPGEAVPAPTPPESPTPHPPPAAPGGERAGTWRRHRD
T17 sequence (P10721 26-976): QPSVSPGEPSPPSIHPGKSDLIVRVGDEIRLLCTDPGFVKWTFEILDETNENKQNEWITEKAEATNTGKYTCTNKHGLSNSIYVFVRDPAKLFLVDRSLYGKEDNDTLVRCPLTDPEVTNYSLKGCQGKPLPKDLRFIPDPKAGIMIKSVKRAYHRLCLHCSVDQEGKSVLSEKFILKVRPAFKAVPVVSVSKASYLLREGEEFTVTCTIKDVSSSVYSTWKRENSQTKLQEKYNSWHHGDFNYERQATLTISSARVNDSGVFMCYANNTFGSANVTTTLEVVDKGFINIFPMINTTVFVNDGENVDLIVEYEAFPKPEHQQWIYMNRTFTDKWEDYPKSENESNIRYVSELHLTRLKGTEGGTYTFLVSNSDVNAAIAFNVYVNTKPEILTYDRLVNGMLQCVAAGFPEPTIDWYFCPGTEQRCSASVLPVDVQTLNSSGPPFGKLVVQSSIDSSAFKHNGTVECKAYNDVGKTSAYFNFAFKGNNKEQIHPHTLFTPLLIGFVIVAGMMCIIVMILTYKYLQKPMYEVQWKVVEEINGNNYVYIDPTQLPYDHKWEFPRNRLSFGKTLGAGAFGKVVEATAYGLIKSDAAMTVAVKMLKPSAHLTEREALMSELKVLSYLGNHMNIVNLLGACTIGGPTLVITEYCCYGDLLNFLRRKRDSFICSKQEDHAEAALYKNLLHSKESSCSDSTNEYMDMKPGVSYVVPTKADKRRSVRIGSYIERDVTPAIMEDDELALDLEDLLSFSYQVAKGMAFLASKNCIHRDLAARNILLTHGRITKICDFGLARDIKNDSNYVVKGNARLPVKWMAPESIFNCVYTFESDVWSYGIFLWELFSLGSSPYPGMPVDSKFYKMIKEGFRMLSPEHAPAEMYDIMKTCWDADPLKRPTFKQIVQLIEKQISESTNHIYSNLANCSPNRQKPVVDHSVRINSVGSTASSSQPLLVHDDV
T5 sequence (P49761 whole entry): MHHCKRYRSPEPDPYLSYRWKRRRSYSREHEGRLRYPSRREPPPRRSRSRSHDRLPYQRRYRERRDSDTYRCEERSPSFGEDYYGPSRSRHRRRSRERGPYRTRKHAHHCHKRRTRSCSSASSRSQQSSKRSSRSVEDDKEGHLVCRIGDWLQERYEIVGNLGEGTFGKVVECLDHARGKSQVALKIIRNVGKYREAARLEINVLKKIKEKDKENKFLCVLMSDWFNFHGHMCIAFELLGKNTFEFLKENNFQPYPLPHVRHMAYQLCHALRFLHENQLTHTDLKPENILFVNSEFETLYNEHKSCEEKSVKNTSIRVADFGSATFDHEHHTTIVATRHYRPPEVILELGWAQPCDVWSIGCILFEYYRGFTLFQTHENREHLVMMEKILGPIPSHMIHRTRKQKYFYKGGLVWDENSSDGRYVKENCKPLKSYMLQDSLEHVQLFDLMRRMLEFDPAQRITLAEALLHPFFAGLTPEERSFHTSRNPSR
T6 sequence (P07333 20-972): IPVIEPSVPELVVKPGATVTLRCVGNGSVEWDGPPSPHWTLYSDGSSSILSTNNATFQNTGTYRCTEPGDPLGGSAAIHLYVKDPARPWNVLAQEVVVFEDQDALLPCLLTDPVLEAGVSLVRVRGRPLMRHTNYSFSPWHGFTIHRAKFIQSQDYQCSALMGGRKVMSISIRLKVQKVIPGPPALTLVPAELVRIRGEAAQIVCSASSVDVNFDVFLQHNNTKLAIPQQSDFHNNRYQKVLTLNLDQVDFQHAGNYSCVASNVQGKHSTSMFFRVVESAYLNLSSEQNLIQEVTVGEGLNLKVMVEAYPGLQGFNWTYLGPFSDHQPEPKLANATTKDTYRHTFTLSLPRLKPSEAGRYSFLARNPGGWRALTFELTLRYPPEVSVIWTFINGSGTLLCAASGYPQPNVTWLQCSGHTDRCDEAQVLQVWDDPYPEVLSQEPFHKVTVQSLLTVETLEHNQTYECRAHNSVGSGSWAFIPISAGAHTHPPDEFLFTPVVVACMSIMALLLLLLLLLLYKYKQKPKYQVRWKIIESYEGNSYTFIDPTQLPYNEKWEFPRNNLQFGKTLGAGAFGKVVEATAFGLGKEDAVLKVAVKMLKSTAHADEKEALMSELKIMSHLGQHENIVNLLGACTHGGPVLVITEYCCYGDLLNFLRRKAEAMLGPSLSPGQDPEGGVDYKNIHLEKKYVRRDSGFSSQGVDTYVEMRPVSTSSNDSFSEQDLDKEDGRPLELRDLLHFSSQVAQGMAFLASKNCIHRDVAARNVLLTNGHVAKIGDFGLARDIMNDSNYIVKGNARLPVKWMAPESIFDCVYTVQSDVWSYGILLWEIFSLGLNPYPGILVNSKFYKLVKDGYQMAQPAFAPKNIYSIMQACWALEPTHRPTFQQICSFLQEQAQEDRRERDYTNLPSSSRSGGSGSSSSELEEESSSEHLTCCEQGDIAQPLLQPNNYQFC
T4 sequence (P48730 whole entry): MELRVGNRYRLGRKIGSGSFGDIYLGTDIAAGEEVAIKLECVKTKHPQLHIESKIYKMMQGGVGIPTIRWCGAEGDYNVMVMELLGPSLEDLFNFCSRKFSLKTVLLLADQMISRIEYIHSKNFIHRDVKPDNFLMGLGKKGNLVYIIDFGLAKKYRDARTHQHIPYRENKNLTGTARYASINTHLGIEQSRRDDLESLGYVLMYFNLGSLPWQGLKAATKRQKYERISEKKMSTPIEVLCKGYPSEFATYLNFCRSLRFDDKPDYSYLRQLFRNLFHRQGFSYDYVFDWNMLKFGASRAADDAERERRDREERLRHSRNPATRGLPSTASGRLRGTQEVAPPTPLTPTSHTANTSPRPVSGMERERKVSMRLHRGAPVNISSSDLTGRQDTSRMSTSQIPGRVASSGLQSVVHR
T24 sequence (P05771 whole entry): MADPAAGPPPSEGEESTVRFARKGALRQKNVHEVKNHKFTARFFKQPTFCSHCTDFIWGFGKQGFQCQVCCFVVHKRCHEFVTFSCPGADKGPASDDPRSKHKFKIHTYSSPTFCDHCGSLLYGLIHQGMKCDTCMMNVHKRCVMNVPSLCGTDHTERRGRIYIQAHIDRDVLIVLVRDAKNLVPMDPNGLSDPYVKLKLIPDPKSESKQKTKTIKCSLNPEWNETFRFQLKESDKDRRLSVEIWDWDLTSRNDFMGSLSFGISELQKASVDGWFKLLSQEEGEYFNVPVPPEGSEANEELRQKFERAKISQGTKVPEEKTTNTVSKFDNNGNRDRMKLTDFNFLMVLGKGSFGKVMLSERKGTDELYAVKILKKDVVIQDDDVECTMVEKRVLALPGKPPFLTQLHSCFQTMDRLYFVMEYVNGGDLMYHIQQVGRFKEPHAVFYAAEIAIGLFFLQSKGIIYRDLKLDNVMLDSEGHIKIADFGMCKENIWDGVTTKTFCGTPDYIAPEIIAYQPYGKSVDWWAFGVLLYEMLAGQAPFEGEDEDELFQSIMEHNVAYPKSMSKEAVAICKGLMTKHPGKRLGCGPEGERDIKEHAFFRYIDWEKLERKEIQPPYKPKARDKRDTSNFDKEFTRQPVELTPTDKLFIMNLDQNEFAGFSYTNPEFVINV
T27 sequence (Q15418 whole entry): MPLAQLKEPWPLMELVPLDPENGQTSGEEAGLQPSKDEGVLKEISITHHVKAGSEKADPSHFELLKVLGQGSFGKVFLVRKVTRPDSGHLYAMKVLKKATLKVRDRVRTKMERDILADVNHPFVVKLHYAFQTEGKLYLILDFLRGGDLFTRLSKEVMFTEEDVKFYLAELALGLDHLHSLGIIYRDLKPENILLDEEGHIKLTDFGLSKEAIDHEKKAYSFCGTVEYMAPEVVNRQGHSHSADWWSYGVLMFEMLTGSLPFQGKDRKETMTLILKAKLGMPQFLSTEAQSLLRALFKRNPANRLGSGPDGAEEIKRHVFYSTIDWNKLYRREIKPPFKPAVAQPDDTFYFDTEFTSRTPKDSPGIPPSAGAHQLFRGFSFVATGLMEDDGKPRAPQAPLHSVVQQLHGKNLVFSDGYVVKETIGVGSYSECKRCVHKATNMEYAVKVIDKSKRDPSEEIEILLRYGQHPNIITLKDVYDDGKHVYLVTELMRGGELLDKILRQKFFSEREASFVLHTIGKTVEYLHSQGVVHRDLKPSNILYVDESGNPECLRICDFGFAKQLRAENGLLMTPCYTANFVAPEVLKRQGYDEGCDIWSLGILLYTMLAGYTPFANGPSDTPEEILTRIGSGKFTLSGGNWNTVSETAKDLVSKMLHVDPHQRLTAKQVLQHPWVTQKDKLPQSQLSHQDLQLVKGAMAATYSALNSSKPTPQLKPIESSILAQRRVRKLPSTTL

## COc1cc(C(N)=O)nc(-c2cccc(C#C[C@]3(O)CCN(C)C3=O)c2)c1 [NIK SMI1]
Abl
  inhibition at 1 µM: 9.5%
Aurora_A
  inhibition at 1 µM: 1%
CHK1
  inhibition at 1 µM: 14%
CK1_delta
  inhibition at 1 µM: -4.5%
CLK3
  inhibition at 1 µM: 14.5%
CSF1R
  inhibition at 1 µM: -11%
CSK
  inhibition at 1 µM: 12.5%
CaMKI
  inhibition at 1 µM: 18.3%
DCAMKL2
  inhibition at 1 µM: 6.5%
EphA1
  inhibition at 1 µM: 2.5%
Fes
  inhibition at 1 µM: 20.5%
Flt1
  inhibition at 1 µM: 7%
Flt3
  inhibition at 1 µM: 13.5%
Flt4
  inhibition at 1 µM: 9%
GRK6
  inhibition at 1 µM: 9%
IRR
  inhibition at 1 µM: 5%
Kit
  inhibition at 1 µM: -3.5%
MKNK1
  inhibition at 1 µM: 2%
MLK1
  inhibition at 1 µM: -1%
MRCK_alpha
  inhibition at 1 µM: 0.5%
Mink1
  inhibition at 1 µM: 53.5%
PAK4
  inhibition at 1 µM: 64%
PKA
  inhibition at 1 µM: -3%
PKC_beta1
  inhibition at 1 µM: 1.5%
PKC_theta
  inhibition at 1 µM: -6%
PLK1
  inhibition at 1 µM: 1.5%
RSK1
  inhibition at 1 µM: 4.5%
SGK2
  inhibition at 1 µM: 9.5%
TSSK1
  inhibition at 1 µM: 61%
Tie2
  inhibition at 1 µM: 6%
TrkB
  inhibition at 1 µM: -3.5%
ZIPK
  inhibition at 1 µM: -5.5%
p70S6K
  inhibition at 1 µM: 9.5%
